Patent publication US7014863B2, “Additive for an animal feed” (priority 1999, dated 2006)

Assays:
Clostridium perfringens [1] = assay type: in vivo, chickens; settings: inferred from FIG. 3 and common knowledge
Clostridium perfringens [2] = settings: general common knowledge in the art; cited from earlier work

C[N+](C)(C)CC(=O)O [betaine]
effectiveness against an infection of C. perfringens (Clostridium perfringens [1]): does not result in the Clostridium infection being effectively treated
effectiveness against a C. perfringens challenge (Clostridium perfringens [2]): not effective
